Data: patent US7858637B2, “Administration of TLR7 ligands and prodrugs thereof for treatment of infection by hepatitis C virus” (priority 2003, dated 2010)

Tests used:
HCV = HCV viral load reduction in patients, intravenous isatoribine; format: in vivo, human; settings: 800 mg QD×7 days IV infusion
Protocol: All doses were administered by constant rate infusion over a 60-minute period, except the 800 mg dose was administered over an 80-minute period. The flow rate for each dose was as follows: 3.33 mL/min for the 200 mg dose; 6.67 mL/min for the 400 mg dose; 8.33 mL/min for the 500 mg dose; or 10.0 mL/min for the 600 mg and 800 mg dose. Four to twelve patients were enrolled in each of the dose groups (200 mg, 400 mg, 600 mg and 800 mg per dose) and received once daily intravenous infusions for 7 days. Prior to dosing, a blood sample was drawn from each patient for assessment of the genotype of the HCV virus. […] The viral load was measured by the branched DNA method ([…]3.0 bDNA assay, Bayer Diagnostics). For plasma HCV RNA, the maximum change from the pre-treatment baseline was estimated using log-transformed values.

HCV replicon = assay: HCV replicon-based viral bioassay with supernatants of compound-treated PBMC; format: cell-based, hepatitis C virus
Protocol: A quantitative assay was developed which is based on measuring the activity of the luciferase reporter gene that was integrated into an HCV replicon. By using this system, interferons from TLR7 agonist-treated PBMCs were measured and their inhibitory activity was assessed using the luciferase reporter replicon.
Human PBMCs isolated from a healthy donor were placed in replicate cell culture wells (5×10^6 cells per well). The PBMCs are incubated in the absence of test compounds at 37° C. in a humidified atmosphere containing 5% CO2 for 24 hours to allow stabilization to the culture conditions, and then the TLR7 ligand or a drug free control is added to replicate wells containing PBMCs from the same donor. The concentrations of TLR7 ligand may be varied to suit the particular experiment, and the PBMC cultures are then incubated at 37° C. in a humidified atmosphere containing 5% CO2 for eight hours. Samples of cell culture supernatant are taken at the eight hour time point (or twenty four hour time point in case of Loxoribine and its prodrugs) from TLR7 ligand treated and control wells and are assayed for interferon-alpha production by ELISA. Supernatants from compound-treated cells and a no-drug control were diluted at 1:10, 1:100, and 1:1000 in RPMI media and applied to a 96-well plate of Huh7 hepatocyte cells containing the luciferase reporter replicon. Cells were incubated for 48 hours at 37° C. in a tissue culture incubator.
After the incubation period, the 96-well plates are washed 2× with PBS and are lysed with passive lysis buffer (Promega). Plates are shaken at room temperature for 20 minutes and standard luciferase assay reagent (Promega) is added to each well by injection and the plate is read on an Lmax luminometer (Molecular Devices).
A supernatant collected from PBMC cells non-exposed to the compound and diluted as specified in the first column was used as a control (“Blank supernatant”). The PBMC cells were isolated from a single blood donor as specified.

human TLR7 = target: T1, human TLR7 (Homo sapiens, UniProt Q9NYK1); assay: HEK293-hTLR7 NF-kB luciferase reporter (C23) assay; settings: read-out: mean fold induction of luciferase activity compared to the no drug control
T1 sequence (Q9NYK1 27-1049): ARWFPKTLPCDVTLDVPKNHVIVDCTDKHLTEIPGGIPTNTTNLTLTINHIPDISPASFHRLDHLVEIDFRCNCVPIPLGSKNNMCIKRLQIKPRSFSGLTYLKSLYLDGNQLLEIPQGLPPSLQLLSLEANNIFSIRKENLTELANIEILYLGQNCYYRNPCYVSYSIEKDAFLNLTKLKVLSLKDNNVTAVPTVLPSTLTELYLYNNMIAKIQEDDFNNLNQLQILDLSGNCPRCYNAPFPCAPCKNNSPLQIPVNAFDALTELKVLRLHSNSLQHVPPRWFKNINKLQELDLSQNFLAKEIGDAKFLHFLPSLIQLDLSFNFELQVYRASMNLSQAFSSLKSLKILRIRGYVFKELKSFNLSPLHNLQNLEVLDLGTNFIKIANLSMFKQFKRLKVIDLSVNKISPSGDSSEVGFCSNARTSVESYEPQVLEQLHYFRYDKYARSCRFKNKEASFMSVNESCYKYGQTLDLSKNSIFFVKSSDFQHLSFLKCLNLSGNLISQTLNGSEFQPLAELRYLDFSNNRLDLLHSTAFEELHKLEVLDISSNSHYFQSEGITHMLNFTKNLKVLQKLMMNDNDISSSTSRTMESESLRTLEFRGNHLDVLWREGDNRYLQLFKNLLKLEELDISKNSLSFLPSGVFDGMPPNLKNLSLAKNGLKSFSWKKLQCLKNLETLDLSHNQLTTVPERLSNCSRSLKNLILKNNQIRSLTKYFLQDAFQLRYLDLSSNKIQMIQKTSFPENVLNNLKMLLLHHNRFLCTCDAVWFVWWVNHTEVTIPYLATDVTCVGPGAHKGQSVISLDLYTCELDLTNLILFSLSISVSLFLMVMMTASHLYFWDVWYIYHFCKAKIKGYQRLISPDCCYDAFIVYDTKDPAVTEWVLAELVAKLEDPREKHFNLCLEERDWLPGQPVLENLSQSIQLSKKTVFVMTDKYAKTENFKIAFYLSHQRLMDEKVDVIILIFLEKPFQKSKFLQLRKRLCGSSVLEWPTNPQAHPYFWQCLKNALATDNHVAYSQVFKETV
Protocol: A stable HEK293-hTLR7 cell line was obtained from Invivogen (San Diego, Calif.), transfected with pNiFty2-Luc, an NF-kB inducible luciferase reporter plasmid (Invivogen) and (dual) stable transfectants selected. The resultant dual (hTLR7/pNiFty2-Luc) cell lines were functionally tested by response to loxoribine and isatoribine as measured by fold luciferase induction relative to a no drug control. […] See, e.g., Hemmi H. et al., Nat.
For a typical C23 assay, cells are seeded at 6×10^4 cells/well in 96 well plates and 4-24 hours later are treated with various concentrations of compound. After 2-48 hours exposure the cell monolayers are lyzed with passive lysis buffer (Promega) and the firefly luciferase assay carried out using the luciferase assay reagent (Promega) as specified by the manufacturer. Relative luciferase activities are expressed as folds of induction compared to the no drug control. A two-fold induction over background is considered a bona fide TLR7 agonist, dependent on this being a statistically significant increase.
In Table 1, isatoribine, was added to C23 cells for forty-eight hours, and the cells were then harvested and assayed for luciferase activity. Each time-point was assayed in triplicate.
Each time-point was assayed in triplicate.

## Nc1nc2c(sc(=O)n2[C@@H]2O[C@H](CO)[C@@H](O)[C@H]2O)c(=O)[nH]1 [Compound 21, 7-thia-8-oxoguanosine]
HCV
  patients with plasma viral load decrease of more than 0.5 log 10 units: Eight of 12
HCV; 12 patients
  mean change in plasma viral load (HCV RNA) from baseline: −0.76 log 10 units
  range of change in plasma viral load (HCV RNA) from baseline: −2.85 to +0.21 log 10 units
HCV replicon; Table 3 No. 1, PBMC exposed 8 hours to 100 μM, donor FL72035, supernatant dilution 1:100
  HCV replicon inhibition: 100%
HCV replicon; Table 3 No. 1, PBMC exposed 8 hours to 100 μM, donor FL72035, supernatant dilution 1:1000
  HCV replicon inhibition: 94%
HCV replicon; Table 3 No. 2, PBMC exposed 8 hours to 100 μM, donor FL75287, supernatant dilution 1:10
  HCV replicon inhibition: 100%
HCV replicon; Table 3 No. 2, PBMC exposed 8 hours to 100 μM, donor FL75287, supernatant dilution 1:100
  HCV replicon inhibition: 87%
HCV replicon; Table 3 No. 2, PBMC exposed 8 hours to 100 μM, donor FL75287, supernatant dilution 1:1000
  HCV replicon inhibition: 6%
HCV replicon; Table 3 No. 3, PBMC exposed 24 hours to 100 μM, donor FL75864, supernatant dilution 1:10
  HCV replicon inhibition: 100%
HCV replicon; Table 3 No. 3, PBMC exposed 24 hours to 100 μM, donor FL75864, supernatant dilution 1:100
  HCV replicon inhibition: 99%
HCV replicon; Table 3 No. 3, PBMC exposed 24 hours to 100 μM, donor FL75864, supernatant dilution 1:1000
  HCV replicon inhibition: 64%
Human TLR7
  fold induction at 50 µM: 3.1
  fold induction at 100 µM: 3.4
  fold induction at 250 µM: 6.2
  fold induction at 500 µM: 10.9
